Patent US4604380A, “C-23-substituted mycaminosyltylonolide compounds, pharmaceutical compositions and methods of use” (Eli Lilly and Company, priority 1985, dated 1986)
Converted amounts (≈) assume the structure as drawn. Where two headings read alike, the source gives them in different places.

Tests used:
[1] = system: Haemophilus influenzae 76; test: MIC, standard agar-dilution assay (Table III); type: cell-based; conditions: agar dilution; Haemophilus influenzae 76, ampicillin-resistant strain; read-out: MIC
Experimental: (§1) The MIC's s in Table III were determined by standard agar-dilution assays. The MIC's in Table IV were obtained using a conventional broth-dilution microtiter test.

[2] = system: Haemophilus influenzae C.L.; test: MIC, standard agar-dilution assay (Table III); type: cell-based; conditions: agar dilution; Haemophilus influenzae C.L., ampicillin-sensitive strain; read-out: MIC
Experimental: as §1

[3] = system: Staphylococcus aureus S13E; test: MIC, standard agar-dilution assay (Table III); type: cell-based
Experimental: as §1

[4] = system: Staphylococcus aureus V41; test: MIC, standard agar-dilution assay (Table III); type: cell-based; conditions: Staphylococcus aureus V41, penicillin-resistant strain
Experimental: as §1

[5] = system: Staphylococcus aureus X1.1; test: MIC, standard agar-dilution assay (Table III); type: cell-based
Experimental: as §1

[6] = system: Staphylococcus aureus X400; test: MIC, standard agar-dilution assay (Table III); type: cell-based
Experimental: as §1

[7] = system: Staphylococcus epidermidis 222; test: MIC, standard agar-dilution assay (Table III); type: cell-based
Experimental: as §1

[8] = system: Staphylococcus epidermidis EPI1; test: MIC, standard agar-dilution assay (Table III); type: cell-based
Experimental: as §1

[9] = system: Streptococcus Group D 2041; test: MIC, standard agar-dilution assay (Table III); type: cell-based; conditions: GROUPD2041
Experimental: as §1

[10] = system: Streptococcus Group D X66; test: MIC, standard agar-dilution assay (Table III); type: cell-based
Experimental: as §1

[11] = system: Streptococcus pyogenes C203; test: MIC, standard agar-dilution assay (Table III); type: cell-based
Experimental: as §1

[12] = system: Streptococcus pneumoniae Park I; test: microbe, parasite or virus in culture; type: cell-based; conditions: read-out: MIC
Experimental: as §1

[13] = system: Staphylococcus aureus; test: ED50 vs. Staphylococcus aureus experimental infection in mice (Table V); type: in vivo; conditions: two doses, dose protecting 50% of animals
Experimental: (§2) Certain formula 1a compounds have also shown in vivo antimicrobial activity against experimental bacterial infections. When two doses of test compound were administered to mice in experimental infections, the activity observed was measured as an ED50 value [effective dose in mg/kg to protect 50% of the test animals: see Warren Wick, et al., J. Bacteriol. 81, 233-235 (1961)].

[14] = system: Streptococcus pyogenes; test: ED50 vs Streptococcus pyogenes experimental infection in mice (Table VI); type: in vivo; conditions: two doses, several values = results from more than one test
Experimental: as §2

[15] = system: Streptococcous pneumoniae; test: ED50 vs. Streptococcous pneumoniae experimental infection in mice (Table VII); type: in vivo; conditions: Mus musculus, two doses
Experimental: as §2

[16] = system: Bordetella bronchisepticum 95B; test: MIC, conventional broth-dilution microtiter test (Table IV); type: cell-based
Experimental: as §1

[17] = system: Mycoplasma gallisepticum 15E; test: as above; type: cell-based; conditions: Mycoplasmoides gallisepticum; broth-dilution microtiter; Mycoplasma gallisepticum 15E; read-out: MIC
Experimental: as §1

[18] = system: Mycoplasma gallisepticum 29C; test: as above; type: cell-based; conditions: Mycoplasmoides gallisepticum; broth-dilution microtiter; Mycoplasma gallisepticum 29C; read-out: MIC
Experimental: as §1

[19] = system: Mycoplasma gallisepticum 36H; test: as above; type: cell-based; conditions: Mycoplasmoides gallisepticum; broth-dilution microtiter; Mycoplasma gallisepticum 36H; read-out: MIC
Experimental: as §1

[20] = system: Mycoplasma hyopneumoniae S5972; test: as above; type: cell-based; conditions: Mesomycoplasma hyopneumoniae; broth-dilution microtiter; Mycoplasma hyopneumoniae S5972; read-out: MIC
Experimental: as §1

[21] = system: Mycoplasma hyorhinis 29E; test: as above; type: cell-based; conditions: Mycoplasma, 29E
Experimental: as §1

[22] = system: Mycoplasma synoviae 40A; test: as above; type: cell-based; conditions: Mycoplasmopsis synoviae, 40A
Experimental: as §1

[23] = system: Pasteurella hemolytica 22C; test: as above; type: cell-based; conditions: broth-dilution microtiter; Pasteurella hemolytica 22C; read-out: MIC
Experimental: as §1

[24] = system: Pasteurella hemolytica 23C; test: as above; type: cell-based; conditions: broth-dilution microtiter; Pasteurella hemolytica 23C; read-out: MIC
Experimental: as §1

[25] = system: Pasteurella hemolytica 41D; test: as above; type: cell-based; conditions: broth-dilution microtiter; Pasteurella hemolytica 41D; read-out: MIC
Experimental: as §1

[26] = system: Pasteurella multocida 17E; test: as above; type: cell-based; conditions: broth-dilution microtiter; Pasteurella multocida 17E, bovine isolate; read-out: MIC
Experimental: as §1

[27] = system: Pasteurella multocida 22A; test: as above; type: cell-based; conditions: broth-dilution microtiter; Pasteurella multocida 22A; read-out: MIC
Experimental: as §1

[28] = system: Pasteurella multocida 40G; test: as above; type: cell-based; conditions: broth-dilution microtiter; Pasteurella multocida 40G; read-out: MIC
Experimental: as §1

[29] = system: Pasteurella multocida 60A; test: as above; type: cell-based; conditions: broth-dilution microtiter; Pasteurella multocida 60A, avian isolate; read-out: MIC
Experimental: as §1

[30] = system: Pasteurella multocida 68C; test: as above; type: cell-based; conditions: broth-dilution microtiter; Pasteurella multocida 68C; read-out: MIC
Experimental: as §1

[31] = system: Staphylococcus aureus 19C; test: as above; type: cell-based; conditions: broth-dilution microtiter; Staphylococcus aureus 19C; read-out: MIC
Experimental: as §1

[32] = system: Streptococcus sp. 19F; test: as above; type: cell-based
Experimental: as §1

[33] = agar dilution, Staphylococcus epidermidis 222, read-out: MIC
[34] = Staphylococcus epidermidis, EPI1
[35] = agar dilution, Streptococcus pneumoniae Park I
[36] = sc, subcutaneous, read-out: ED50 Subcutaneous
[37] = agar dilution, Streptococcus Group D X66, read-out: MIC
[38] = agar dilution, Streptococcus pyogenes C203, read-out: MIC

## CCC1OC(=O)CC(O)C(C)C(OC2OC(C)C(O)C(N(C)C)C2O)C(CC=O)CC(C)C(=O)C=CC(C)=CC1CN1CCC2CCCCC21 (stereo not drawn) [Compound 35, 23-deoxy-23-(octahydro-1H--indol-1-yl)-OMT]
[1]
  MIC: 1 µg/mL (≈ 1.42 µM)
[2]
  MIC: 0.5 µg/mL (≈ 0.709 µM)
[3]
  MIC: 0.25 µg/mL (≈ 0.355 µM)
[4]
  MIC: 0.25 µg/mL (≈ 0.355 µM)
[5]
  MIC: 0.25 µg/mL (≈ 0.355 µM)
[6]; Staphylococcus aureus, X400
  MIC: 0.25 µg/mL (≈ 0.355 µM)
[7]; [33]
  MIC: 0.125 µg/mL (≈ 0.177 µM)
[8]; [34]
  MIC: 0.25 µg/mL (≈ 0.355 µM)
[9]
  MIC: 0.25 µg/mL (≈ 0.355 µM)
[10]
  MIC: 0.25 µg/mL (≈ 0.355 µM)
[11]; Streptococcus pyogenes, C203
  MIC: 0.5 µg/mL (≈ 0.709 µM)
[12]; [35]
  MIC: 1 µg/mL (≈ 1.42 µM)
[13]; po, read-out: ED50 Oral
  ED50: 100 mg/kg
[14]; po, read-out: ED50 Oral
  ED50: 87.1 mg/kg
[14]; [36]
  ED50: 1.86 mg/kg
[14]; subcutaneous
  ED50 Subcutaneous: 2.5 mg/kg × 2
[15]; po, read-out: ED50 Oral
  ED50: 71 mg/kg

## CCC1OC(=O)CC(O)C(C)C(OC2OC(C)C(O)C(N(C)C)C2O)C(CC=O)CC(C)C(=O)C=CC(C)=CC1CN1C2CCCCC2C2CCCCC21 (stereo not drawn) [Compound 25, 23-deoxy-23-(dodecahydro-9H--carbazol-9-yl)-OMT]
[1]
  MIC: 1 µg/mL (≈ 1.32 µM)
[2]
  MIC: 4 µg/mL (≈ 5.27 µM)
[3]
  MIC: 0.5 µg/mL (≈ 0.659 µM)
[4]
  MIC: 0.5 µg/mL (≈ 0.659 µM)
[5]
  MIC: 0.5 µg/mL (≈ 0.659 µM)
[6]; agar dilution, Staphylococcus aureus X400, methicillin-resistant strain, read-out: MIC
  MIC: 1 µg/mL (≈ 1.32 µM)
[7]; Staphylococcus epidermidis, 222
  MIC: 0.25 µg/mL (≈ 0.329 µM)
[8]; agar dilution, Staphylococcus epidermidis EPI1, read-out: MIC
  MIC: 0.5 µg/mL (≈ 0.659 µM)
[9]; agar dilution, Streptococcus Group D 2041, read-out: MIC
  MIC: 0.5 µg/mL (≈ 0.659 µM)
[10]; [37]
  MIC: 0.5 µg/mL (≈ 0.659 µM)
[11]; [38]
  MIC: 0.25 µg/mL (≈ 0.329 µM)
[12]; [35]
  MIC: 0.125 µg/mL (≈ 0.165 µM)
[16]
  MIC: 25 µg/mL (≈ 32.9 µM)
[17]
  MIC: 50 µg/mL (≈ 65.9 µM)
[18]
  MIC: 0.097 µg/mL (≈ 0.128 µM)
[19]
  MIC: 50 µg/mL (≈ 65.9 µM)
[20]
  MIC: < 0.012 µg/mL
[21]
  MIC: < 0.048 µg/mL
[22]
  MIC: < 0.048 µg/mL
[23]
  MIC: 3.12 µg/mL (≈ 4.11 µM)
[24]
  MIC: 1.56 µg/mL (≈ 2.06 µM)
[25]
  MIC: 1.56 µg/mL (≈ 2.06 µM)
[26]
  MIC: 1.56 µg/mL (≈ 2.06 µM)
[27]
  MIC: 1.56 µg/mL (≈ 2.06 µM)
[28]
  MIC: 1.56 µg/mL (≈ 2.06 µM)
[29]
  MIC: 1.56 µg/mL (≈ 2.06 µM)
[30]
  MIC: 1.56 µg/mL (≈ 2.06 µM)
[31]
  MIC: 0.78 µg/mL (≈ 1.03 µM)
[32]
  MIC: < 0.048 µg/mL
[13]; [36]
  ED50: 7.69 mg/kg
[14]; po, read-out: ED50 Oral
  ED50: 63 mg/kg
[14]; [36]
  ED50: 7.43 mg/kg
[14]; subcutaneous
  ED50 Subcutaneous: > 10 mg/kg × 2
[15]; [36]
  ED50: > 10 mg/kg

## CCC1OC(=O)CC(O)C(C)C(OC2OC(C)C(O)C(N(C)C)C2O)C(CC=O)CC(C)C(=O)C=CC(C)=CC1CN1CCC2(CCCCC2)CC1 (stereo not drawn) [Compound 27, 23-deoxy-23-(3-azaspiro[5.5]undecan-3-yl)-OMT]
[1]
  MIC: 2 µg/mL (≈ 2.73 µM)
[2]
  MIC: 2 µg/mL (≈ 2.73 µM)
[3]
  MIC: 0.5 µg/mL (≈ 0.682 µM)
[4]
  MIC: 0.5 µg/mL (≈ 0.682 µM)
[5]
  MIC: 0.5 µg/mL (≈ 0.682 µM)
[6]; Staphylococcus aureus, X400
  MIC: 0.5 µg/mL (≈ 0.682 µM)
[7]; [33]
  MIC: 0.25 µg/mL (≈ 0.341 µM)
[8]; [34]
  MIC: 0.5 µg/mL (≈ 0.682 µM)
[9]
  MIC: 0.5 µg/mL (≈ 0.682 µM)
[10]; [37]
  MIC: 0.25 µg/mL (≈ 0.341 µM)
[11]; [38]
  MIC: 0.25 µg/mL (≈ 0.341 µM)
[12]; Streptococcus pneumoniae
  MIC: 0.06 µg/mL (≈ 0.0819 µM)
[13]; [36]
  ED50: 3.08 mg/kg
[14]; [36]
  ED50: > 10 mg/kg
[15]; [36]
  ED50: > 10 mg/kg
